Earlier results on one compound are cited in US20240041838A1, “METHODS AND COMPOSITIONS FOR INHIBITION OF NEUTROPHIL RECRUITMENT IN MYCOCARDIAL ISCHEMIA-REPERFUSION INJURY” (University of Connecticut, priority 2022, published 2024).

The subject of this series is I/R-induced ventricular arrhythmia. The following applies: reported; cited from earlier work.

Turning to `CCN(CC)CCCC(C)Nc1nc(C)cc(Nc2ccc3nc(C)cc(N)c3c2)n1` (stereo not shown) [NSC23766], the I/R-induced ventricular arrhythmia entry is given as “decreased”.
